These results are taken from patent publication US20160024051A1, “SALTS AND SOLID FORMS OF ISOQUINOLINONES AND COMPOSITION COMPRISING AND METHODS OF USING THE SAME” (INFINITY PHARMACEUTICALS, INC., priority 2013, published 2016).

SMILES strings stand for the structures. Where a name gives a salt, the structure may show the parent alone. Read-outs that look alike come from different tables or passages of the source. Bounds are passed on as bounds.

For data set [1] the following is noted: 24 hours.
A short description of data set [2]: Storage at 25° C./93% RH for 1 week, re-analysis by XRPD/HPLC. In kind it is physicochemical. Conditions: after 1 week, XRPD.
Data set [3] is described as follows: Storage at 40° C./75% RH (elevated humidity) for 1 week, re-analysis by XRPD/HPLC.
Experimental: The crystalline solids were filtered, dried at ambient conditions, and stored at 40° C./75% RH for 1 week and analyzed by ^1H NMR/IC.
Samples from the screen using amorphous free base Compound 1 were analysed by ^1H-NMR and DSC, and re-analysis by XRPD was also carried out after drying at 50° C./vacuum and storage at 40° C./75% RH (the same sample was dried and stored at elevated humidity).
The nature of data set [4]: Thermodynamic aqueous solubility. In kind it is physicochemical.
Data set [5] in a line: Gravimetric vapour sorption (GVS). In kind it is physicochemical. The gist of the method: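 Moisture sorption isotherm at 25° C, 0-90% RH in 10% RH steps, 2 scans giving one full cycle, starting from 40% RH. Each step equilibrated 1-4 h until mass within 5% of predicted asymptote; solid re-checked by XRPD afterwards.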
Data set [6] can be described thus: Drying experiments: heating in an oven at 125° C. for two hours, XRPD. In kind it is physicochemical.
Data set [7] can be described thus: Free base solubility assessment in 15 solvents (free base Form 1). In kind it is physicochemical. As to the method: Approximately 11 mg (0.022 mmol) portions of the free base Form 1 of Compound 1 (i.e., the compound of formula (I)) were weighed into 2 ml screw-topped HPLC vials. One of 15 solvents was added to each vial in a number of aliquots (up to 100 volumes), with shaking and if necessary with heating to 40° C., in an attempt to achieve dissolution.

The target in data set [8] is PI3K-α (Homo sapiens, UniProt P42336). Briefly: Kd determination, PI3K-α. In kind it is binding.
Sequence of PI3K-α (P42336 whole entry): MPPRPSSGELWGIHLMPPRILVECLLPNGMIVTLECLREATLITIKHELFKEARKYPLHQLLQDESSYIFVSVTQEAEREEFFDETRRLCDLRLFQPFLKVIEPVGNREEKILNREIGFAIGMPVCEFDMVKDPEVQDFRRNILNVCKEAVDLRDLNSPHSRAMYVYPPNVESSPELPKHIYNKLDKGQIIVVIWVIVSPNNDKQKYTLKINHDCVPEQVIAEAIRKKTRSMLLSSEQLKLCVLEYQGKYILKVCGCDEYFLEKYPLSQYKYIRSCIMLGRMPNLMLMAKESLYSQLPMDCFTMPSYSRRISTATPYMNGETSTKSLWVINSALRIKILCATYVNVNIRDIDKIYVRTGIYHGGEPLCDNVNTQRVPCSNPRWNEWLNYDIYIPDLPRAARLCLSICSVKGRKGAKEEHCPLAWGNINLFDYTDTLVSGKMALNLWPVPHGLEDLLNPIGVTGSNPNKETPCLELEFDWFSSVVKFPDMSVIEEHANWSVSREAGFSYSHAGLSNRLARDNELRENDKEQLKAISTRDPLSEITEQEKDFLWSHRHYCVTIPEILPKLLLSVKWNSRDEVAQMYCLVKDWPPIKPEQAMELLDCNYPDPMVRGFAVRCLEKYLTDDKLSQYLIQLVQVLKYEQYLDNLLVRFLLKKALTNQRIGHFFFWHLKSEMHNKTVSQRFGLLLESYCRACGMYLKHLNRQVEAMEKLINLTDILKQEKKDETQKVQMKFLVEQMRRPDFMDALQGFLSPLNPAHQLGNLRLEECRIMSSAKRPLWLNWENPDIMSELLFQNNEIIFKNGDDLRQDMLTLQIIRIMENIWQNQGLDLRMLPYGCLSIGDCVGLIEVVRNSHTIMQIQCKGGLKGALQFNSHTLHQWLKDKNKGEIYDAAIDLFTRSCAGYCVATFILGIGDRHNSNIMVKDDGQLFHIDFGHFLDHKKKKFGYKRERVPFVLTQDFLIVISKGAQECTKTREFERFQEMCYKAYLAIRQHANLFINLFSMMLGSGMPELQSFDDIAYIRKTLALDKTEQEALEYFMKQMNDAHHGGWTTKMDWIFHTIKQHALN
Sequence of PI3K-α (P27986 whole entry partner): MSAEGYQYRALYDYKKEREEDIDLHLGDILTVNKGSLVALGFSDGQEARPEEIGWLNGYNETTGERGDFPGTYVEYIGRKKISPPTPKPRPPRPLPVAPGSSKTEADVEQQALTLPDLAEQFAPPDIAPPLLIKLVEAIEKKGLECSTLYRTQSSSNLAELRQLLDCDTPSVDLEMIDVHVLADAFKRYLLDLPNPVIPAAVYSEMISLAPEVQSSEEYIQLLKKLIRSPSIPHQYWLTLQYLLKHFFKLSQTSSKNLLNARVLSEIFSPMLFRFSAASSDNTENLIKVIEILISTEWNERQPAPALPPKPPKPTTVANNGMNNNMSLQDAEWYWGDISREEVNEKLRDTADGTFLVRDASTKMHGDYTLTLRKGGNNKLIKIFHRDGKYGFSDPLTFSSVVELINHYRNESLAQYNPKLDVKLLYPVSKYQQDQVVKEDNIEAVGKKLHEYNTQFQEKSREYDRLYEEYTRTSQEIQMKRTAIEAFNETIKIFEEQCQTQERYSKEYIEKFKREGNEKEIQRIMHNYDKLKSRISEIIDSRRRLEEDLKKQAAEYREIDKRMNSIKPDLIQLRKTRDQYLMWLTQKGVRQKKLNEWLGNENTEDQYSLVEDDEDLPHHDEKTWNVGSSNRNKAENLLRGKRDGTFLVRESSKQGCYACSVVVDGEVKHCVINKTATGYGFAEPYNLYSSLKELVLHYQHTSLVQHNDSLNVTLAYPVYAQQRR
Data set [9] is described as follows: PK properties in non-clinical animal species (all species). In kind it is in vivo, CD-1 mouse, Wistar rat, Cyno monkey, Beagle dog. Here is the method: (§1) For example, Compound 1 bis-hydrogen sulfate monohydrate was evaluated in CD-1 mouse, Wistar rat, Cyno monkey, and Beagle dog. Cross species allometric scaling of CL (drug clearance) and Vss (volume at steady state) predicts low CL, high Vss and long T112 for Compound 1 in humans.

In data set [10] the target is PI3K-δ (Homo sapiens, UniProt O00329). Briefly: Kd determination, PI3K-δ. In kind it is binding.
Sequence of PI3K-δ (O00329 whole entry): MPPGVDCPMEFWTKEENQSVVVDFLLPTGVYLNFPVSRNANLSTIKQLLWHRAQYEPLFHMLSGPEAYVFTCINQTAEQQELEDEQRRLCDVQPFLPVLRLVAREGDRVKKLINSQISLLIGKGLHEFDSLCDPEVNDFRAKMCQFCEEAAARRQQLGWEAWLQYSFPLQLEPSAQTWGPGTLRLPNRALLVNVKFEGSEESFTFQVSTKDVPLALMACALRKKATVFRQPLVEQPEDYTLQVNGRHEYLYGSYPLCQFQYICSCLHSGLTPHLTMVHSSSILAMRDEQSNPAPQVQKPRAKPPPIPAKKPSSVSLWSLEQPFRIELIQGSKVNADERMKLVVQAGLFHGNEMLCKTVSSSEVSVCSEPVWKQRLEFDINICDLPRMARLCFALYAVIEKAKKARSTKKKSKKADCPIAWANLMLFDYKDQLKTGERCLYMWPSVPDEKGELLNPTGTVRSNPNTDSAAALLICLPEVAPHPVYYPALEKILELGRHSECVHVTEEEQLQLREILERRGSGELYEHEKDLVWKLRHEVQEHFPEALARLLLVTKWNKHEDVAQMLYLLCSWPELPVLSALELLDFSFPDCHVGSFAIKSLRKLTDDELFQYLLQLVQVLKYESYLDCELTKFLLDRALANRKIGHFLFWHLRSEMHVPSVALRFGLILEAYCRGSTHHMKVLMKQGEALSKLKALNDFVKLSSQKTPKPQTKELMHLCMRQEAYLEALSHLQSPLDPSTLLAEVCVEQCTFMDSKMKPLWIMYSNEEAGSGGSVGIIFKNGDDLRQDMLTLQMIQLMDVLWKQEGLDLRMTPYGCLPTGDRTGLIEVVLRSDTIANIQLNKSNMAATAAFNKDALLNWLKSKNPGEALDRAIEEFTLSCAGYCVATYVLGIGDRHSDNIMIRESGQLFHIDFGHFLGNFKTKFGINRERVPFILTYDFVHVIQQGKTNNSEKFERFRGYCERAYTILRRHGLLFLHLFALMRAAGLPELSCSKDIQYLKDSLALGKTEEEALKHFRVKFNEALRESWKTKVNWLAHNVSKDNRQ
Sequence of PI3K-δ (P27986 whole entry partner): as the sequence (P27986 whole entry partner) above
The nature of data set [11]: Cross species allometric scaling of CL and Vss to humans. As to the method:
as §1

Data set [12] concerns the target PI3K-β (Homo sapiens, UniProt P42338). Description: Kd determination, PI3K-β. In kind it is binding.
The nature of data set [13]: pKa of the basic nitrogen atoms. In kind it is physicochemical. Conditions: at least two basic nitrogen atoms.
For data set [14], the target named is PI3K-γ (Homo sapiens, UniProt P48736). Description: Kd determination, PI3K-γ. In kind it is binding.
Sequence of PI3K-γ (P48736 whole entry): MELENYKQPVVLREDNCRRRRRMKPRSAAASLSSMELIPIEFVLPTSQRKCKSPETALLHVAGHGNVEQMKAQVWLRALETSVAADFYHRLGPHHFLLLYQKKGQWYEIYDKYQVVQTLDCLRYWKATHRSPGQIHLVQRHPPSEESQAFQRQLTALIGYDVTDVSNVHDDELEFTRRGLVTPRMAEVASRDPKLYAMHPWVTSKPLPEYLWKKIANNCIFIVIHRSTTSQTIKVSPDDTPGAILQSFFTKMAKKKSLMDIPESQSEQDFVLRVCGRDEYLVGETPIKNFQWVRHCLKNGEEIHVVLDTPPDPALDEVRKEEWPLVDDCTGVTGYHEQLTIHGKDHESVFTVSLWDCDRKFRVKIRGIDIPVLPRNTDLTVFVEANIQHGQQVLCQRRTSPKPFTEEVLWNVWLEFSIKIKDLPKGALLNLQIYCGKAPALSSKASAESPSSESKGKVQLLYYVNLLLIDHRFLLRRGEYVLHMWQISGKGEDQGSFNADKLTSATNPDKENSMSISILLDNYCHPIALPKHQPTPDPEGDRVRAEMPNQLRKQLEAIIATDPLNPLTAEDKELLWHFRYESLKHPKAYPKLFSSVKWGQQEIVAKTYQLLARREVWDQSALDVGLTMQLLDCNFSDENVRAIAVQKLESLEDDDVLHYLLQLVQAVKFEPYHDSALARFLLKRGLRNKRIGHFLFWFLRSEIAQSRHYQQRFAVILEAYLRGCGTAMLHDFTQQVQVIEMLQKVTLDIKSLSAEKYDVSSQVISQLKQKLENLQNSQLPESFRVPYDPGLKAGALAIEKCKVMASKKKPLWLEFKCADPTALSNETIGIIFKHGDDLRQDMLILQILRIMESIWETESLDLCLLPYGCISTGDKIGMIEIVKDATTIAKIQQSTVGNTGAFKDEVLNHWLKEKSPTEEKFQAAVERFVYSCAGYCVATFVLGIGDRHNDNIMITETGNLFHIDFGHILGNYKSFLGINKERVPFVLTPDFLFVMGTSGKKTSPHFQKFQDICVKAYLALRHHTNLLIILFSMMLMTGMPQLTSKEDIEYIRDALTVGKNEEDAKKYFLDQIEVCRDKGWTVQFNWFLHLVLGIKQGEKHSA
The nature of data set [15]: Solubility of free base hydrate and salts versus pH (Table 24). In kind it is physicochemical. The conditions noted are these: for Solubility: thermodynamic from solid, read-out: Solubility.
Data set [16] in a line: 2-Week comparative stability studies. In kind it is physicochemical. Conditions: 2 weeks. As to the method:
(closed); (ii) ambient (closed); (iii) ambient (closed-exposed to light); (iv) ambient (open); (v) 60° C. (closed); (vi) RT/75% RH (open); and (vii) 40° C./75% RH (open).

The nature of data set [17]: Solubility of bis-sulfuric acid salt Form 1 in solvents at 50° C. In kind it is physicochemical. Here is the method: Bis-Sulfuric acid salt Form 1 of Compound 1 (ca. 35 mg) was weighed into vials. The corresponding solvents and solvent mixtures were added in portions of (a total of) 5, 10, 20, and 30 volumes at 50° C., with shaking, aiming for clear solutions. After each addition, the vials were allowed to shake for 20 minutes, after which observations were made. Solutions were allowed to evaporate, whereas slurries were set for 8 hour temperature cycling maturation, between RT and 50° C., for 5 days.

Data set [18] is described as follows: Density and flowability (Hausner ratio, Carr index). In kind it is physicochemical. The source says:
The Hausner ratio and the Carr index are correlated to the flowability of a powder or granular material. […] The flowability of both salts are acceptable for manufacturing.

The nature of data set [19]: Dissolution. In kind it is physicochemical. As to the method: The dissolution rate for the hydrate was about 80% in 15 min at pH 1.2 and about 20% in 60 min at pH 2.5. The dissolution rate of the bis-sulfuric acid salt was 100% in 15 min at both pH 1.2 and pH 2.5.
A short description of data set [20]: Polymorphism study: maturation (temperature cycling RT to 50° C.) in solvents, XRPD. In kind it is physicochemical. Conditions: 30 volumes of solvent, RT to 50° C., five days; all solvents other than acetic acid/water, methanol, ethanol/water.

Sequence of PI3K-β (P42338 whole entry): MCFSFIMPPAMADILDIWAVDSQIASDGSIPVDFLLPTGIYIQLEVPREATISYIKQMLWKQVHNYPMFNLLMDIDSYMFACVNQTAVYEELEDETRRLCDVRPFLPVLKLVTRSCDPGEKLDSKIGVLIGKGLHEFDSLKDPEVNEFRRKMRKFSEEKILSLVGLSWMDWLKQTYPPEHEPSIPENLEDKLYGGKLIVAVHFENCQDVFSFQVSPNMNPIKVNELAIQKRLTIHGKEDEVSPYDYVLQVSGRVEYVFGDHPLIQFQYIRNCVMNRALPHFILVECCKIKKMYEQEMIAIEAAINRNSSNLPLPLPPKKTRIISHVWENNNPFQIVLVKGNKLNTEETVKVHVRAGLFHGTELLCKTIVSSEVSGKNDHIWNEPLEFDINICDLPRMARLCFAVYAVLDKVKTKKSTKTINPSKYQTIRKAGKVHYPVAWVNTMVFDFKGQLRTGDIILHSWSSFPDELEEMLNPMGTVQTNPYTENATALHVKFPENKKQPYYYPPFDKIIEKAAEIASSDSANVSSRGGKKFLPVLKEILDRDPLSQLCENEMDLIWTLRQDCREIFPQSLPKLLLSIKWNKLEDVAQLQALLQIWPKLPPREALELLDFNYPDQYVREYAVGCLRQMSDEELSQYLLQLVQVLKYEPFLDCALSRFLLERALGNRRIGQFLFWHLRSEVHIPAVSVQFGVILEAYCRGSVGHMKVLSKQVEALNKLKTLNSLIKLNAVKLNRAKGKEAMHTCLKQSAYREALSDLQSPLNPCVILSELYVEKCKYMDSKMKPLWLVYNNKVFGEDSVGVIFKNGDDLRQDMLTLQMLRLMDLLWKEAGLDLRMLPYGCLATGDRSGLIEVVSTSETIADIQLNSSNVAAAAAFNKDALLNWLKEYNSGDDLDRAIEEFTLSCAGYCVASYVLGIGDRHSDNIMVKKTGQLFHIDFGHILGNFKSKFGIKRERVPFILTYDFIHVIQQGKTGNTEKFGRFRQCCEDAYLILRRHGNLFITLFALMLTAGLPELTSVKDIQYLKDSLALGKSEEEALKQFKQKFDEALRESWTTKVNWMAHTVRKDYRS
Sequence of PI3K-β (P27986 whole entry partner): as the sequence (P27986 whole entry partner) above

For the compound `COc1cc(-c2cccc3cc([C@H](C)Nc4nc(N)ncc4C#N)n(-c4ccccc4)c(=O)c23)ccn1`, the “crystallinity after standing at RT” value in [1] is on record as “decreases”.
With `COc1cc(-c2cccc3cc([C@H](C)Nc4nc(N)ncc4C#N)n(-c4ccccc4)c(=O)c23)ccn1.O` [Compound 1 Free Base Form 2], the “Stability at 25° C./93% RH” value in data set [2] is listed as “Very slight changes after 1 week”. Further, in [3] (after 1 week, XRPD), the “Stability at 40° C./75% RH” value is on record as “Very slight changes after 1 week”. In data set [4] (at pH 6.47), the Thermodynamic aqueous solubility is 0.005 mg/mL, at pH 6.47. For the same compound, the “GVS: immediate moisture uptake, up to” value in data set [5] (40-50% RH, stable on sorption up to 90% RH and desorption down to 10% RH) is on record as “uptake (40-50% RH up to 5.7% w/w) which remains”. The “GVS: moisture on loading” value in [5] (loaded at 40% RH, 25° C.) is on record as 4.7% w/w moisture on loading. Immediate moisture. The “GVS: XRPD after the experiment” value in data set [5] (re-analysis by XRPD after GVS) is listed as 40% RH. Slight changes by XRPD after the experiment. Further, the “Drying experiments: changes by XRPD” value in [6] is “very slight changes by XRPD”.
As for `COc1cc(-c2cccc3cc([C@H](C)Nc4nc(N)ncc4C#N)n(-c4ccccc4)c(=O)c23)ccn1` [Compound 1, (S)-2-amino-4-((1-(8-(2-methoxypyridin-4-yl)-1-oxo-2-phenyl-1,2-dihydroisoquinolin-3-yl)ethyl)amino)pyrimidine-5-carbonitrile], the “volumes of solvent in which Compound 1 dissolved” value in data set [7] (2-MeTHF) is reported as 50 vol; in data set [7] (DMSO), 5 vol; in data set [7] (MIBK) it was 40 vol; in data set [7] (MeOH, shaking, if necessary heating to 40° C.) it was 75 vol; in data set [7] (MeOH/anisole (50/50 v/v)) it was 10 vol; in data set [7] (THF) it was 40 vol. Moreover, the “volumes of solvent in which Compound 1 dissolved” value in [7] (chloroform) is on record as 40 vol. For the same compound, the “volumes of solvent in which Compound 1 did not dissolve” value in [7] (EtOAC), in [7] (EtOH), in [7] (EtOH/H2O), in data set [7] (H2O), in [7] (TBME) and in data set [7] (acetone) was above 100 vol each time. Also, the “volumes of solvent in which Compound 1 did not dissolve” value in data set [7] (acetonitrile) and in [7] (anisole) was above 100 vol each time. Also, the koff worked out at 0.053 s⁻¹ in [8], 0.000252 s⁻¹ in data set [10], 0.0126 s⁻¹ in [12] and 0.000188 s⁻¹ in data set [14]. Moreover, the kon came to 5.43e+06 M⁻¹ s⁻¹ in data set [8], 8.23e+06 M⁻¹ s⁻¹ in data set [10], 2.03e+06 M⁻¹ s⁻¹ in data set [12] and 1.65e+06 M⁻¹ s⁻¹ in [14]. Further, the Kd was determined as 9.76 nM in data set [8] (read-out: KD = koff/kon), 0.0306 nM in data set [10] (read-out: KD = koff/kon), 6.24 nM in [12] (read-out: KD = koff/kon) and 0.114 nM in data set [14] (read-out: KD = koff/kon). In addition, in data set [9] (non-clinical animal species), the oral bioavailability result is listed as “Good oral bioavailability”. Also, in data set [11] (allometric scaling), the “CL (drug clearance) predicted in humans” value was “low”. For the same compound, the “T112 predicted in humans” value in [11] (allometric scaling) is recorded as “long”. In addition, the “Vss (volume at steady state) predicted in humans” value in data set [11] (allometric scaling) was “high”. The Forai in humans entry in data set [11] (suggested by oral bioavailability in animals) was “good”. For the same compound, the pKa in data set [13] is around 3.5.
`COc1cc(-c2cccc3cc([C@H](C)Nc4nc(N)ncc4C#N)n(-c4ccccc4)c(=O)c23)ccn1` [bis-sulfuric acid monohydrate salt of (S)-2-amino-4-((1-(8-(2-methoxypyridin-4-yl)-1-oxo-2-phenyl-1,2-dihydroisoquinolin-3-yl)ethyl)amino)pyrimidine-5-carbonitrile]: in data set [3] (salt screen solids, 1 week, XRPD pattern or observation), the “Storage 40° C./75% RH” value is “salt Pattern 1”. Moreover, in data set [4] (salts scaled-up at 0.5 gram), the “Thermodynamic aqueous solubility” value was above 51 mg/mL. The Solubility in data set [15] (Simulated Gastric Fluid) was above 17 mg/mL; in data set [15] (Simulated Intestinal Fluid, fassgf or other biorelevant), 0.04 mg/mL; in data set [15] (aqueous buffer, citrate buffer, pH 2.5, at 37° C.) it was above 12 mg/mL; in [15] (aqueous buffer, citrate buffer, pH 2.5, at RT), above 12 mg/mL; in data set [15] (aqueous buffer, pH 1.65, 37° C.) it was above 12 mg/mL; in [15] (aqueous buffer, pH 1.65, RT), above 12 mg/mL. Further, the Solubility in [15] (aqueous buffer, pH 1.9, 37° C.) was above 12 mg/mL; in data set [15] (aqueous buffer, pH 1.9, RT), above 12 mg/mL; in data set [15] (aqueous buffer, pH 2.5, 37° C.), above 12 mg/mL; in data set [15] (aqueous buffer, pH 2.5, RT), above 12 mg/mL; in data set [15] (aqueous buffer, pH 3.0, 37° C.) it was 3.45 mg/mL; in data set [15] (aqueous buffer, pH 3.0, RT), 1.58 mg/mL. The Solubility is 0.28 mg/mL in [15] (aqueous buffer, pH 3.8, 37° C.); 0.29 mg/mL in data set [15] (aqueous buffer, pH 3.8, RT); above 90 mg/mL in data set [15] (simulated gastric fluid, 0.1N HCl, 37° C., at saturation); above 60 mg/mL in [15] (Water (pH 1.16)). For the same compound, in data set [15] (up to pH 3), the “solubility compared to the hydrate” value is recorded as “significantly higher solubility”. The change in appearance entry in data set [16] (5° C. (closed), ambient (closed), ambient (closed-exposed to light), ambient (open), 60° C. (closed), RT/75% RH (open), 40° C./75% RH (open)) is reported as “No change in appearance”. Also, the “change of water content, as determined by KF” value in data set [16] (all seven storage conditions) was “No significant change”. For the same compound, the “volumes of solvent giving a clear solution” value in data set [17] (acetic acid/water 1:3 at 50° C.) and in data set [17] (methanol at 50° C.) was 5 volumes each time. In data set [18], the “flowability compared to the hydrate” value was “improved flowability”. Besides, the dissolution rate in data set [19] (in 15 min at pH 1.2, listed as bis-sulfuric acid salt) came to 100%; in data set [19] (in 15 min at pH 2.5), 100%. In addition, in [9] (animal pharmacology models and non-clinical toxicology species), the oral pharmacokinetics result is listed as “good oral pharmacokinetics”. Also, the “GVS Single cycle” value in data set [5] (hygroscopicity in words, 25° C.) was “Slightly hygroscopic”. In addition, in [20], the “changes on maturation of slurries” value was “did not show any changes”.
